Measured values as given in patent US6310093A (priority 1998, dated 2001).

Key:
[1] = system: mixed glial-neuronal cultures; experiment: Glutamate production in intact mixed glial-neuronal cultures with added glutamine; type: cell-based, mouse (Swiss Webster)
Method: Added glutamate (15 μM) was rapidly cleared from the medium of the mixed glial-neuronal cultures (FIG. 1). The uptake again fit to a first order process and occurred with a rate constant of 0.072 min^-1. […] When the intact mixed cultures were maintained in the absence or presence of added 2 mM glutamine, they also maintained steady state concentrations of glutamate below 1 μM (0.37±0.06 μM and 0.83±0.47 μM respectively). Thus, from the steady state equation, the rates of glutamate production were estimated to be 0.027 μM/min (11 pmol/min) in the absence of added glutamine and 0.060 μM/min (24 pmol/min) in the presence of 2 mM glutamine.
Measurements of glutamate and glutamine concentrations, as well as of the release of the cytoplasmic marker enzyme, lactate dehydrogenase (LDH), were made with the medium of mixed neuronal-astrocyte cultures exposed to hypoxic and control conditions, with and without the addition of 2 mM glutamine. For comparative purposes, the measurements were made in mixed cultures in which complete neuronal death was caused by a 5h exposure to 500 μM NMDA. The first glutamate measurement was made at the end of hypoxia (5h with mixed cultures, 7h with astrocytes), and the second at 19 h after the subsequent return of oxygen. If added, glutamine was present during and after hypoxia. LDH released by the experimental treatment was measured at 24 h, and is expressed as a percentage of the total cellular content (neurons in mixed cultures, and glia in glial cultures). To verify the neuronal origin of LDH and glutamate, similar experiments were performed on cultures that only contained glia.
Pre-column derivatization with o-phthalaldehyde (OPA, Sigma) and separation by reversed phase HPLC was used. A Gilson HPLC was fitted with a Hewlett-Packard model 1046A fluorimetric detector (excitation 340 nm, emission 420 nm). Medium was collected from cell culture at various times, and frozen at -80° C., prior to dilution of 5 or 10 μl into auto-sampler vials containing 40 or 45 μl dimethylformamide:water 1:3 (derivatives with 2-mercaptoethanol) or 1:9 (derivatives with N-acetyl-L-cysteine). For analysis of the derivatives formed with 2-mercaptoethanol, samples were reacted according to published methods (Newcomb, R. (1989) LC GC 7, 570-578; Lindroth, P., and Mopper. K., (1979) Anal. Chem. 51, 1667-1674.), and a gradient of 0-40% methanol in 1.25 mM sodium phosphate pH 6.2 over 20 min was used to elute the derivatives from a 4.5×250 mm Beckman Ultrasphere octadecylsilica column (dp 5 μm) at 1 ml/min. For analysis of the derivatives formed with N-acetyl-L-cysteine (Bruckner), samples were reacted with 25 μl of 1 mg/ml OPA, and 50 μl of 1 mg/ml N-acetyl-L-cysteine (Fluka) in 0.5 M potassium borate pH 10.0. […]
In cultures where glutamate concentrations are (within error) constant, d[Glu]/dt is close to zero, and cellular production of medium glutamate is balanced by its removal, such that glutamate production can be calculated from the steady state equation: […]
Calculations were performed using the slopes of the regression lines which describe the rate constants for glutamate removal and the mean values for culture medium glutamate concentrations. […] For comparative purposes, glutamate production rates can be expressed as pmol of glutamate produced per min in each culture. […]

neuronal cultures = experiment: Glutamate production by intact and damaged neuronal cultures with added glutamine; type: cell-based, mouse (Swiss Webster); settings: for Glutamate concentration (in words) / Glutamate production (S): 2 mM Gln
Method: When 2 mM glutamine is added to intact neuronal cultures, the rate at which glutamate accumulates in the culture medium increases with time (FIG. 2). Since the clearance of medium glutamate by neuronal cultures is extremely slow, one estimate of the rate of glutamate production by neurons exposed to glutamine can be obtained from the initial rate of glutamate accumulation. Using the difference in glutamate concentrations at 1 and 15 min after glutamine addition, a value of 0.032±0.006 μM/min (12.8 pmol/min) was obtained. Since glutamine exposure itself eventually causes neuronal death and high rates of glutamine hydrolysis, this estimate of glutamate production should be viewed as an upper limit. However, this value is similar to that obtained by comparing glutamate production by glial and mixed neuronal-glial cultures exposed to glutamine (see below).
In the absence of added glutamine (i.e., in the 0.15 mM glutamine manufactured by the neuronal cultures), glutamate production into the medium of cultures lysed by freezing and thawing occurred at a rate of 0.035±0.006 μM/min (14 pmol/min). […] Thus, damaged neurons incubated in 2 mM glutamine produce within 6-8 min an amount equal to that released by freeze-thawing.
Pre-column derivatization with o-phthalaldehyde (OPA, Sigma) and separation by reversed phase HPLC was used. A Gilson HPLC was fitted with a Hewlett-Packard model 1046A fluorimetric detector (excitation 340 nm, emission 420 nm). Medium was collected from cell culture at various times, and frozen at -80° C., prior to dilution of 5 or 10 μl into auto-sampler vials containing 40 or 45 μl dimethylformamide:water 1:3 (derivatives with 2-mercaptoethanol) or 1:9 (derivatives with N-acetyl-L-cysteine). For analysis of the derivatives formed with 2-mercaptoethanol, samples were reacted according to published methods (Newcomb, R. (1989) LC GC 7, 570-578; Lindroth, P., and Mopper. K., (1979) Anal. Chem. 51, 1667-1674.), and a gradient of 0-40% methanol in 1.25 mM sodium phosphate pH 6.2 over 20 min was used to elute the derivatives from a 4.5×250 mm Beckman Ultrasphere octadecylsilica column (dp 5 μm) at 1 ml/min. For analysis of the derivatives formed with N-acetyl-L-cysteine (Bruckner), samples were reacted with 25 μl of 1 mg/ml OPA, and 50 μl of 1 mg/ml N-acetyl-L-cysteine (Fluka) in 0.5 M potassium borate pH 10.0. Chromatography was carried out on a 4.5×250 mm Phenomonex Primesphere "HC" octadecylsilica column (dp 5 μm) using a gradient of 0-35% methanol in 15 mM sodium phosphate pH 6.2 (0.13% tetrahydrofuran) over 65 minutes at 1 ml/min. It was shown for each of the experimental conditions (ie. glial and control and damaged neuronal and mixed cultures) that both analytical systems gave results for glutamate and glutamine measurements which were, within error, identical.
Glutamate concentrations were converted to units of pmol/μl of culture medium, or μM. In the absence of cellular uptake (ie, in damaged neuronal cultures), the rate of glutamate production was obtained directly from the measurements of the amounts of glutamate in culture medium at various times.

[2] = Table 2, glial-neuronal, 2 mM Gln

SMILES: NC(=O)CC[C@H](N)C(=O)O [Gln, glutamine]
- Glu ([1]; 2 mM Gln, 5 h, mixed cultures, no hypoxia): 0.83 ± 0.47 µM
- cytotoxicity at 2000 µM ([1]; Mus musculus, 24 h, read-out: % cell death (LDH)): 17.6%
- Glutamate concentration [1, 2]: 0.83 ± 0.47
- Glutamate production (S) [1, 2]: 0.06
- glutamate production per culture ([1]; mixed, 2 mM glutamine): 24 pmol/min
- glutamate production by damaged neurons vs intact neurons or glia (neuronal cultures; 2 mM glutamine): 10-30 fold
- Glutamate concentration (in words) (neuronal cultures; NMDA-treated neurons): increases linearly
- Glutamate production (S) (neuronal cultures; NMDA-treated neurons): 0.54 ± 0.09 µM/min
- glutamate production per culture (neuronal cultures; NMDA-treated neurons, 2 mM glutamine): 216 pmol/min
- Glutamate concentration (in words) (neuronal cultures; freeze-thaw damaged neurons): increases linearly
- Glutamate production (S) (neuronal cultures; freeze-thaw damaged neurons): 0.79 ± 0.08 µM/min
- glutamate production per culture (neuronal cultures; freeze-thawed neurons, 2 mM glutamine): 316 pmol/min
- Glutamate concentration (in words) (neuronal cultures; intact neurons): increases
- Glutamate production (S) (neuronal cultures; intact neurons): 0.032 ± 0.006 µM/min
- glutamate production per culture (neuronal cultures; intact neurons, 2 mM glutamine): 12.8 pmol/min
